Earlier results as cited in patent US7973075B2, “Kainate receptor-selective epimeric analogs of dysiherbaine” (priority 2007, dated 2011).

Experiments:
[1] = target: T1, GluR5 (Rattus norvegicus, UniProt P22756); conditions: Tables 1-2; comparison values of neoDH and MSVIII-19 (Sanders et al., 2005); read-out: GluR5 binding affinity (displacement of [3H]kainate); cited from earlier work
T1 construct: expressed in transfected cells; HEK 293 (patch clamp)

[2] = target: T2, GluR6 (Rattus norvegicus, UniProt P42260); conditions: Tables 1-2; comparison value of neoDH (Sanders et al., 2005); read-out: GluR6 binding affinity (displacement of [3H]kainate); cited from earlier work
T2 construct: expressed in transfected cells; HEK 293 (patch clamp)
T2 sequence (P42260 32-908): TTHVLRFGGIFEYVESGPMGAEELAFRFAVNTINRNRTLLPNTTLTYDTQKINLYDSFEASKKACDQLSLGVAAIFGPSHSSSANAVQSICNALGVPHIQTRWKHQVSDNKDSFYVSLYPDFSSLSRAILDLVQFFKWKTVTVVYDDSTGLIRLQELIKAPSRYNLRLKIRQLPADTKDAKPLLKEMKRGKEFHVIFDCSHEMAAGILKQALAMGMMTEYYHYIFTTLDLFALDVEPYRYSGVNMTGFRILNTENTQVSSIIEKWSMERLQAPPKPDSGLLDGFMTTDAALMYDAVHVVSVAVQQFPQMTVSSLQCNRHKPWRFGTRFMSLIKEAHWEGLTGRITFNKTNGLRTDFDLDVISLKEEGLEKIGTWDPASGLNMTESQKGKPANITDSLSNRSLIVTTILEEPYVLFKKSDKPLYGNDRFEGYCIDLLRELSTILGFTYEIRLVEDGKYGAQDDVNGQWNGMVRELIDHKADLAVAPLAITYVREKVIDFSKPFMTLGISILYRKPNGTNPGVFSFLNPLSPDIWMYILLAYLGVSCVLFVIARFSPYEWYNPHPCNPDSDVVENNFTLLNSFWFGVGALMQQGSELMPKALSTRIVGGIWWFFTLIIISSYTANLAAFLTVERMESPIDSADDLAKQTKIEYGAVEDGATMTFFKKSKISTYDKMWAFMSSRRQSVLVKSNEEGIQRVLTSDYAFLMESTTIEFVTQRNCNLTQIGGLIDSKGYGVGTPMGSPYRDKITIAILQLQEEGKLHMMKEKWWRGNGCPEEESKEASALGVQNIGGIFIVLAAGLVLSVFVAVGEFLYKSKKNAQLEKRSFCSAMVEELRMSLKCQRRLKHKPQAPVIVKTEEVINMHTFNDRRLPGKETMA

[3] = target: T3, KA2 (Rattus norvegicus, UniProt Q63273); conditions: Tables 1-2; comparison values of neoDH and MSVIII-19 (Sanders et al., 2005); cited from earlier work
T3 construct: expressed in transfected cells; host or cells: HEK-293-T/17
T3 sequence (Q63273 15-979): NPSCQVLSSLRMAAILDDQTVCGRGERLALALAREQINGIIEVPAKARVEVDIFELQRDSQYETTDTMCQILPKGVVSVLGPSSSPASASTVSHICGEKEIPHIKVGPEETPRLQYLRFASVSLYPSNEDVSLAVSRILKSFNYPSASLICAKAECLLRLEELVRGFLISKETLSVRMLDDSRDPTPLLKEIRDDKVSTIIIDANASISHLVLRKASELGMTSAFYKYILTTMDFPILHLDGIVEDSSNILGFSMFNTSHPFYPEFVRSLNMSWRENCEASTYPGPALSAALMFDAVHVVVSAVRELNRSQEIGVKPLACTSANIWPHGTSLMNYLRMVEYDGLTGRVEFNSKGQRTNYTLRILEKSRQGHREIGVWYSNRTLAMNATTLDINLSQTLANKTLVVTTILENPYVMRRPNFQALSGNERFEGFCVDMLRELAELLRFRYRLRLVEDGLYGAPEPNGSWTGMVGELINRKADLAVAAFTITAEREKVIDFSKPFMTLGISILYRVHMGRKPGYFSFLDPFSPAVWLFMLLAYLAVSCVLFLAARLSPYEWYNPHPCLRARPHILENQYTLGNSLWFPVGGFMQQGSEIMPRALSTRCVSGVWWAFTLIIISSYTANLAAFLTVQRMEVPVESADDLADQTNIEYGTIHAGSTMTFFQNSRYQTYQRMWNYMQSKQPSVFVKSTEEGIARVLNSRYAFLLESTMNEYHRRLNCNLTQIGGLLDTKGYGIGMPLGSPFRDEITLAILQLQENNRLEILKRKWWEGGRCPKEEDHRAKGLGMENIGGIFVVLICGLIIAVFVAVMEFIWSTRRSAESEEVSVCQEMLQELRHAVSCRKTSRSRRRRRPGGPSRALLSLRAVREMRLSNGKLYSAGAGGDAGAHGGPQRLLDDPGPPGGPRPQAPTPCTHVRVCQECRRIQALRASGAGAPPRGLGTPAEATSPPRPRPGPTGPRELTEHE

[4] = target: T4, GluR5-2a (Rattus norvegicus, UniProt P22756, DEL402-416); conditions: Sanders et al., 2005; cited from earlier work
T4 construct: expressed in transfected cells; host or cells: HEK-293-T/17
T4 sequence (P22756 with tags, fused parts or gaps isoform P22756-2 limits assumed, stated change not applied): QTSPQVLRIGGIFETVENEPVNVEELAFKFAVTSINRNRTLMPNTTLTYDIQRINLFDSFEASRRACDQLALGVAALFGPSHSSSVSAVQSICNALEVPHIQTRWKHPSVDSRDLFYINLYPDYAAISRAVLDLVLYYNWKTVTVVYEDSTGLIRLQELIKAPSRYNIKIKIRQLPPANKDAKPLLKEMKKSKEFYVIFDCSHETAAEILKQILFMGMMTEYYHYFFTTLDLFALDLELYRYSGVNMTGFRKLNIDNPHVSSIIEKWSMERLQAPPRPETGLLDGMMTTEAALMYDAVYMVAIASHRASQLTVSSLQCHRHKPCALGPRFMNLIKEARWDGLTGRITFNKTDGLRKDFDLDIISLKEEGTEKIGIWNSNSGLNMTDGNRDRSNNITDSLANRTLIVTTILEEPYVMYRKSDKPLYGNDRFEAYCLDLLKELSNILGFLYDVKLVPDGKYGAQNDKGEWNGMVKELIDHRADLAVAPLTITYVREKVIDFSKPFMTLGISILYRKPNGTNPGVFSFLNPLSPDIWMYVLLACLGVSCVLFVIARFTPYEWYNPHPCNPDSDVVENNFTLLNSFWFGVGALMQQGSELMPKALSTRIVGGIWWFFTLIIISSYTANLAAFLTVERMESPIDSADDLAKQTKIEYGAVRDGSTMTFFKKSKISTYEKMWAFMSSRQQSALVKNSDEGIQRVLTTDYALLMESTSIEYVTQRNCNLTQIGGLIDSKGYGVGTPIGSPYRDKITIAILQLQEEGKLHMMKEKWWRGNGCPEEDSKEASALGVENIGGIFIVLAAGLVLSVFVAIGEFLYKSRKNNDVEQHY

[5] = target: T3, KA2; conditions: Sanders et al., 2005; cited from earlier work
[6] = system: mice; conditions: i.c.v. injection, mice; Shoji et al., 2006; cited from earlier work

T1 sequence (P22756 with tags, fused parts or gaps isoform P22756-2): as the sequence (P22756 with tags, fused parts or gaps isoform P22756-2 limits assumed, stated change not applied) above

N[C@@H](C[C@]1(C(=O)O)C[C@H]2OC[C@@H](O)[C@@H](O)[C@H]2O1)C(=O)O [neodysiherbaine, Neodysiherbaine]
Ki [1]: 7.7 nM | Ki [2]: 33 nM | KA2 binding affinity (displacement of [3H]kainate) [3]: 0.6 µM | Ki [4]: 7.7 nM | Ki KA2 [5]: 600 nM | ED50 seizure activity [6]: 16 pmol/mouse

CN[C@H]1[C@H]2O[C@@](C[C@H](N)C(=O)O)(C(=O)O)C[C@H]2OC[C@H]1O [DH, Dysiherbaine]
ED50 seizure activity [6]: 13 pmol/mouse
